From PMC11436758, “Computer-aided drug design to generate a unique antibiotic family” (Nature Communications, 2024)
In brackets after ≈: the same amount, converted by molar mass.

Tests used:
AcpS = AcpS (Escherichia coli, UniProt P24224); assay: AcpS enzyme activity inhibition (IC50) by DNM compounds, [3H]acetyl-CoA / apo-ACP assay; type: biochemical; settings: three individual replicates
Excerpt: The acpP gene encoding ACP was amplified from E. coli genomic DNA and subcloned into the pGEX4T-1 vector. This construct drives the expression of glutathione S-transferase (GST) fused to the ACP open reading frame through a linker containing a consensus sequence for thrombin cleavage. The identity and veracity of acpP was verified by DNA sequencing. BL21 E. coli cells expressing GST-ACP were suspended in ice-cold phosphate buffer saline (PBS) and lysed by sonication. The lysate was made 1% Triton X-100 and rested on ice for 30 min with occasional mixing. A clear supernatant was isolated by centrifugation at 46,000 × g for 30 min, brought to 10 mM MgCl2 and 2 mM MnCl2 and incubated at room temperature for 1 h with occasional mixing. The supplementation of the lysate to 10 mM MgCl2 and 2 mM MnCl2 favors the activity of endogenous ACP phosphodiesterase (acpH) enriching the apo- fraction of GST-ACP. GST-ACP was affinity purified upon binding to glutathione-sepharose. The ACP moiety was eluted from the affinity resin by in-column thrombin digestion. Apo-ACP was separated from holo-ACP and acylated forms of ACP by ion-exchange chromatography on a Mono-Q 5/50 GL at pH 6.1 operated from an AKTA Pure 25 platform. The purity of the apo-ACP preparation was assessed by 20% PAGE on native gels containing 0.5 M urea.
The acpS gene was amplified from S. aureus and E. coli genomic DNA and inserted into a pET23b vector using standard recombinant DNA methodology such that the protein product would result in addition of a C-terminal 6x-His tag in frame with the AcpS open reading frames. The DNA sequences inserted in the vector were sequenced and found to be identical to the known E. coli and S. aureus acpS open reading frames. Recombinant His-Tagged AcpS expression was induced by IPTG addition and overnight culture. Cell lysate was obtained by sequential aspiration through 16, 18 and 21 G needles in a buffer of 50 mM Tris-HCl (pH 8.5), 10 mM MgCl2, 2 mM DTT, 5% glycerol, and further adjusted to pH 8.1 with MES. […] In a typical AcpS enzyme activity assay, 57 µM [^3H]acetyl-CoA, 2 µg apo-ACP, 10 mM MgCl2, 5 mM DTT, 50 mM Na phosphate (pH 7.0), and AcpS in a final volume of 10 µL were incubated at room temperature in a 1.5 mL microcentrifuge tube. At 5, 10, 15, and 20 min 2 µL of reaction were added to 750 µl 10% TCA on ice. Bovine serum albumin (BSA; 20 µl of a 25 mg/mL solution) was then added to facilitate precipitation of radiolabeled protein. The samples were centrifuged at 12,000 × g for 5 min. Supernatants were removed, and the pellets were rinsed twice with 750 µl of 10% trichloroacetic acid. Pellets were resuspended in 50 µl of formic acid and transferred to scintillation vials. 2 mL of scintillation fluid was added, and the amount of [^3H]-labeled holo-ACP formed was quantified by liquid scintillation counting. The enzymatic reaction proceeded in a linear manner depending on time (10–40 min) and enzyme concentration (1–5 nM). Routinely, each data point was determined at least by triplicate.

MRSA (ATCC 33591) [1] = assay: Rabbit ischemic ear wound model of infection by MRSA, topical treatment; type: in vivo, New Zealand White rabbits; settings: for reduction in bacterial survival as compared to vehicle control: quantitative microbiology at day 14, topical; for wound closure: topical for 14 days, versus vehicle control
Procedure: New Zealand White rabbits from Charles River were employed for this study. Both male and female rabbits were used; sample size prevented disaggregation of data by sex. Investigators were blinded to group allocation, data collection, and data analysis. Food and water were given ad libidum and animals were acclimatized for 7 days with photoperiods of alternating 12 h light and dark at 21 °C in relative humidity of 40–50%. The formulation for delivery of DNM compounds was Glaxal base (WellSpring Pharmaceutical Canada Corp., Oakville, Canada). Formulation was performed by dissolving compound in Glaxal base to give final concentrations of 1% or 2% DNM compound (w/v). The analgesic (Buprenex 0.02 mg/kg sc) and anesthesia (isoflurane (0.5–5% with oxygen carrier 0.5–2 L/min) were used as required during procedures. An ischemia wound healing model was conducted surgically. Each wound was inoculated with 50 μl of 2 × 10^7 CFU/mL MRSA (ATCC #33591) and dressed. After 1 day, wounds were treated with either 50 μl control cream containing vehicle or 50 μl cream containing compound daily. Wounds were assessed and observations recorded using the Draize scoring system. Digital photographs of each wound were obtained and documented.

MRSA (ATCC 33591) [2] = assay: MIC, CLSI broth microdilution; type: cell-based, S. aureus; settings: three individual replicates
Procedure: (§1) The medium employed for the assay was Mueller Hinton II Broth (MHB II; Becton-Dickinson, Sparks, MD, USA). Agar plates used for the organisms were trypticase soy agar plus 5% sheep blood (BD; Sparks, MD, USA). MIC assay plates were prepared using the CLSI broth microdilution procedure. Automated liquid handlers (Multidrop 384, Biomek 2000 and Biomek FX) were used to conduct serial dilutions and liquid transfers. A standardized inoculum of each organism was prepared per CLSI methods. Suspensions were prepared to equal a 0.5 McFarland standard, followed by a 1:20 dilution in test media. The inocula were dispensed into sterile reservoirs divided by length (Beckman Colter) and the Biomek 2000 was used to inoculate the plates. Daughter plates were placed on the Biomek 2000 work surface in reverse orientation so that inoculation took place from low to high drug concentration. The Biomek 2000 delivered 10 μL of the diluted suspension into each well. These inoculations yielded a final cell concentration in the daughter plates of ~5 × 10^5 colony-forming units/mL in each well. The wells of the daughter plates ultimately contained 185 μL of broth, 5 μL of drug solution, and 10 μL of bacterial inoculum. Plates were covered with a sterile lid on the top plate, placed in plastic bags, and incubated at 35 °C for ~18 h. The microplates were viewed from the bottom using a plate viewer and the MIC was read. The MIC was recorded as the lowest concentration of drug that inhibited visible growth of the organism. Uninoculated solubility control plates were also observed for evidence of drug precipitation.

S. aureus (MRSA) = assay: MIC, clinical and laboratory strains; type: cell-based
Procedure: as §1, with “organism.” for “organism. Uninoculated solubility control plates were also observed for evidence of drug precipitation.”

S. aureus (MSSA) = assay: MIC, clinical and laboratory strains; type: cell-based
Procedure: as §1, with “organism.” for “organism. Uninoculated solubility control plates were also observed for evidence of drug precipitation.”

S. aureus (VISA) = assay: MIC, clinical and laboratory strains; type: cell-based
Procedure: as §1, with “organism.” for “organism. Uninoculated solubility control plates were also observed for evidence of drug precipitation.”

[3] = system: 102 ATCC strains and clinical isolates of Staphylococcus, Streptomyces, and Enterococcus; assay: MIC panel summary over all strains; type: cell-based; settings: of 102 strains
Procedure: We also sought to determine if DNM0547 was bacteriostatic or bactericidal. Time kill experiments were carried out using increasing doses of DNM0547 against two different strains of MRSA.
as §1, with “organism.” for “organism. Uninoculated solubility control plates were also observed for evidence of drug precipitation.”

AcpS, sequence (P24224 2-126): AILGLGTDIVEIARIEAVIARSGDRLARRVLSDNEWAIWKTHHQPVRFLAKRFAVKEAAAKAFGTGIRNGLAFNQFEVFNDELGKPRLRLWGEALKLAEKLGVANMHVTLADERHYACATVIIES

Clc1ccc(-c2cc(-c3nnn[nH]3)sc2-c2ccc(Cl)cc2)cc1 [DNM0487] was tested, and the IC50 (AcpS) was 1 µM, the “reduction in bacterial survival as compared to vehicle control” value (MRSA (ATCC 33591) [1]) was over 99% and the wound closure (MRSA (ATCC 33591) [1]) was “significantly improved wound closure”. For the same compound, the MIC (MRSA (ATCC 33591) [2]) was 2 µg/mL (≈ 5.36 µM).

Cc1cc(Cl)ccc1-c1sc(-c2nnn[nH]2)c(C)c1-c1ccc(Cl)cc1C [DNM0614] was tested, and the IC50 (AcpS) was 13 µM, the “reduction in bacterial survival as compared to vehicle control” value (MRSA (ATCC 33591) [1]) was over 99% and the wound closure (MRSA (ATCC 33591) [1]) was “significantly improved wound closure”. For the same compound, the MIC (MRSA (ATCC 33591) [2]) was 1 µg/mL (≈ 2.41 µM).

Work on CC[C@H]1OC(=O)[C@H](C)[C@@H](O[C@H]2C[C@@](C)(OC)[C@@H](O)[C@H](C)O2)[C@H](C)[C@@H](O[C@@H]2O[C@H](C)C[C@H](N(C)C)[C@H]2O)[C@](C)(O)C[C@@H](C)C(=O)[C@H](C)[C@@H](O)[C@]1(C)O [erythromycin] yielded an MIC (S. aureus (MRSA); S. aureus (MRSA) 2167) of over 16 µg/mL, an MIC (S. aureus (MRSA); S. aureus (MRSA) 2168) of over 16 µg/mL and an MIC (S. aureus (MRSA); S. aureus (MRSA) 2169) of over 16 µg/mL. It also gave an MIC (S. aureus (MRSA); S. aureus (MRSA) 2170) of over 16 µg/mL, an MIC (S. aureus (MRSA); S. aureus (MRSA) 2171) of over 16 µg/mL and an MIC (S. aureus (MRSA); S. aureus (MRSA) 2293) of over 16 µg/mL. For the same compound, the MIC (S. aureus (MRSA); S. aureus (MRSA) 2294) was over 16 µg/mL, the MIC (S. aureus (MRSA); S. aureus (MRSA) 2295) was over 16 µg/mL and the MIC (S. aureus (MRSA); S. aureus (MRSA) 2296) was 0.5 µg/mL (≈ 0.681 µM). The MIC (S. aureus (MRSA); S. aureus (MRSA) 2297) was over 16 µg/mL, the MIC (S. aureus (MRSA); S. aureus (MRSA) 3880) was over 16 µg/mL and the MIC (S. aureus (MRSA); S. aureus (MRSA) 5373) was over 16 µg/mL. For the same compound, the MIC (S. aureus (MRSA); S. aureus (MRSA) 5666) was over 16 µg/mL, the MIC (S. aureus (MRSA); S. aureus (MRSA) 5702) was over 16 µg/mL and the MIC (S. aureus (MRSA); S. aureus (MRSA) 5999) was over 16 µg/mL. The MIC (S. aureus (MRSA); S. aureus (MRSA) 6165) was over 16 µg/mL, the MIC (S. aureus (MRSA); S. aureus (MRSA) 6169) was over 16 µg/mL and the MIC (S. aureus (MRSA); S. aureus (MRSA) 6174) was over 16 µg/mL. It also gave an MIC (S. aureus (MRSA); S. aureus (MRSA) 6311) of over 16 µg/mL, an MIC (S. aureus (MRSA); S. aureus (MRSA) 6312) of over 16 µg/mL and an MIC (S. aureus (MRSA); S. aureus (MRSA) 6313) of over 16 µg/mL. It also gave an MIC (S. aureus (MRSA); S. aureus (MRSA) 6315) of over 16 µg/mL, an MIC (S. aureus (MRSA); S. aureus (MRSA) 6320) of over 16 µg/mL and an MIC (S. aureus (MRSA); S. aureus (MRSA) 6498) of 0.5 µg/mL (≈ 0.681 µM). For the same compound, the MIC (S. aureus (MRSA); S. aureus (MRSA) 6501) was over 16 µg/mL, the MIC (S. aureus (MRSA); S. aureus (MRSA) 6505) was over 16 µg/mL and the MIC (S. aureus (MRSA); S. aureus (MRSA) 6506) was 0.5 µg/mL (≈ 0.681 µM). For the same compound, the MIC (S. aureus (MRSA); S. aureus (MRSA) NRS382/2119) was over 16 µg/mL, the MIC (S. aureus (MRSA); S. aureus (MRSA) NRS383/2120) was over 16 µg/mL and the MIC (S. aureus (MRSA); S. aureus (MRSA) NRS384/2011) was over 16 µg/mL. For the same compound, the MIC (S. aureus (MSSA); S. aureus (MSSA) 2127) was 0.12 µg/mL (≈ 0.164 µM), the MIC (S. aureus (MSSA); S. aureus (MSSA) 6167) was over 16 µg/mL and the MIC (S. aureus (MSSA); S. aureus (MSSA) 6168) was 0.25 µg/mL (≈ 0.341 µM). It also gave an MIC (S. aureus (MSSA); S. aureus (MSSA) 6170) of 0.5 µg/mL (≈ 0.681 µM), an MIC (S. aureus (MSSA); S. aureus (MSSA) 6316) of over 16 µg/mL and an MIC (S. aureus (MSSA); S. aureus (MSSA) 6317) of 0.5 µg/mL (≈ 0.681 µM). The MIC (S. aureus (MSSA); S. aureus (MSSA) 6318) was over 16 µg/mL, the MIC (S. aureus (MSSA); S. aureus (MSSA) 6499) was over 16 µg/mL and the MIC (S. aureus (MSSA); S. aureus (MSSA) 6500) was 8 µg/mL (≈ 10.9 µM). The MIC (S. aureus (MSSA); S. aureus (MSSA) 6502) was 0.25 µg/mL (≈ 0.341 µM), the MIC (S. aureus (VISA); S. aureus (VISA) 1724) was 0.25 µg/mL (≈ 0.341 µM) and the MIC (S. aureus (VISA); S. aureus (VISA) 2012) was over 16 µg/mL. The MIC (S. aureus (VISA); S. aureus (VISA) 2013) was over 16 µg/mL, the MIC (S. aureus (VISA); S. aureus (VISA) 2014) was over 16 µg/mL and the MIC (S. aureus (VISA); S. aureus (VISA) 2015) was over 16 µg/mL. It also gave an MIC (S. aureus (VISA); S. aureus (VISA) 2016) of over 16 µg/mL, an MIC (S. aureus (VISA); S. aureus (VISA) 2017) of 0.25 µg/mL (≈ 0.341 µM) and an MIC (S. aureus (VISA); S. aureus (VISA) 2018) of over 16 µg/mL. It also gave an MIC (S. aureus (VISA); S. aureus (VISA) 2019) of over 16 µg/mL, an MIC (S. aureus (VISA); S. aureus (VISA) 2123) of over 16 µg/mL and an MIC (S. aureus (VISA); S. aureus (VISA) NRS1/1723) of over 16 µg/mL. The “number of strains tested with MIC not ≤ 2 μg/mL” value [3] was 76.
